Measurements as given in patent US20070238700A1, “N-PHENYL-1,1,1-TRIFLUOROMETHANESULFONAMIDE HYDRAZONE DERIVATIVE COMPOUNDS AND THEIR USAGE IN CONTROLLING PARASITES” (priority 2006, published 2007).
Where two headings read alike, the source gives them in different places.

Experiments:
Ctenocephalides felis = system: Ctenocephalides felis
Procedure, shortened: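 Adult cat fleas (3–7 days post-emergence), 15 per flask in ≥4 replicates, exposed to a dried acetone residue at 1.26 μg/cm^2 on a Coatasil-treated glass flask base. Held at 25±1° C, 75±5% humidity; mortality (immobile or unable to right) scored at 8, 24 and/or 48 h.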

Rhipicephalus sanguineus = test: Rapid screening protocol for topical application on brown dog ticks (% mortality)
Description: d) Rapid Screening Protocol for Topical Application on Brown Dog Ticks (Rhipicephalus sanguineus)
The aim of the test was to determine the presence of significant acaricidal activity in sample compounds or formulations when applied topically on brown dog ticks. A tick was defined as dead if it gave no apparent response when touched lightly and observed for 1 minute. To assess the experimental compound for acaricidal activity, a single dose level was chosen based on known results from previous experiments with a commercially available active reference compound. Both permethrin and fipronil were employed as reference compounds. The insect species tested was the Brown Dog Tick (Rhipicephalus sanguineus). Mixed sex adult ticks were used for tests. The strain used was cultured by von Berky Veterinary Services, Woody Point, QLD, AU and supplied as unfed adult ticks (mixed sex). Ticks were maintained in controlled conditions (temp. 18°±2° C., humidity 75±5% RH).
Test compounds (formulations or active ingredients) were stored in a refrigerator (5±1° C.) unless otherwise specified. Temperature was maintained at 25±1° C. and the humidity was ambient. The screening dose chosen was higher than that known to kill 90% of insects (LD90) using the reference compound. In the case of topical application of active compounds on adult ticks, the reference compound was fipronil and the dose chosen was 10 μg of active per tick (=10 μg of fipronil/1 μl of acetone). Ticks were each treated on the abdomen with 1 μL of a single dose level of test sample in acetone; ten ticks were treated with solvent only (acetone) in each test. Tests were replicated 4 times (total of 40 ticks treated). Ticks were held in recovery containers maintained under appropriate rearing conditions for 24 hours. Mortality resulting from the treatments was recorded at 24 hours. Pooled 24 hour mortality data were converted to percentages.

| Compound | C. felis Mortality (%) 8 h (Ctenocephalides felis) | C. felis Mortality (%) 24 h (Ctenocephalides felis) | R. sanguineus Mortality (%) 24 h (Rhipicephalus sanguineus; data from laboratory 2) | C. felis Mortality (%) 8 h (Ctenocephalides felis; 8 h, data from laboratory 1) | C. felis Mortality (%) 24 h (Ctenocephalides felis; 24 h, data from laboratory 1) | also measured |
| --- | --- | --- | --- | --- | --- | --- |
| CC(=NN(Cc1ccccc1)c1ccccc1)c1cc(Cl)ccc1NS(=O)(=O)C(F)(F)F [Compound 22] | 98% | 100% |  |  |  | R. sanguineus Mortality (%) 24 h (Rhipicephalus sanguineus; data from laboratory 1): 33^A % |
| CCC(=NN(Cc1ccccc1)c1ccccc1)c1cc(Cl)ccc1NS(=O)(=O)C(F)(F)F [Compound 24] | 100% | 100% |  |  |  | R. sanguineus Mortality (%) 24 h (Rhipicephalus sanguineus; data from laboratory 1): 28^A % |
| CC(=NN(c1ccccc1)C(C)C)c1cc(Cl)ccc1NS(=O)(=O)C(F)(F)F [Compound 28] |  | 100% | 68% |  |  | C. felis Mortality (%) 48 h (Ctenocephalides felis): 100% |
| CC(=NN(c1ccc(Cl)cc1)C(C)C)c1cc(Cl)ccc1NS(=O)(=O)C(F)(F)F [Compound 33] |  | 86% | 88% |  |  | C. felis Mortality (%) 48 h (Ctenocephalides felis): 100% |
| CCN(N=C(C)c1cc(Cl)ccc1NS(=O)(=O)C(F)(F)F)c1ccccc1Cl [Compound 37] |  | 89% | 83% |  |  | C. felis Mortality (%) 48 h (Ctenocephalides felis): 100% |
| CCN(N=C(C)c1cc(Cl)ccc1N(C)S(=O)(=O)C(F)(F)F)c1ccccc1F [Compound 44] |  | 3% | 3% |  |  | C. felis Mortality (%) 48 h (Ctenocephalides felis): 22% |
| CC(=NN(c1ccc(C(F)(F)F)cc1)C(C)C)c1cc(Cl)ccc1NS(=O)(=O)C(F)(F)F [Compound 47] | 14% | 100% | 58% |  |  |  |
| CC(=NN(c1cccc(Cl)c1)C(C)C)c1cc(Cl)ccc1NS(=O)(=O)C(F)(F)F [Compound 50] | 61% | 100% | 68% |  |  |  |
| CCCN(N=C(C)c1cc(Cl)ccc1NS(=O)(=O)C(F)(F)F)c1ccc(Br)cc1 [Compound 53] | 71% | 100% | 50% |  |  |  |
| CC(=NN(c1ccccc1Cl)C(C)C)c1cc(Cl)ccc1NS(=O)(=O)C(F)(F)F [Compound 56] | 51% | 99% | 45% |  |  |  |
| CC(=NN(C)c1ccc(C(F)(F)F)cc1)c1cc(Cl)ccc1NS(=O)(=O)C(F)(F)F [Compound 65, N-[2-[1-(N′-methyl-(4-trifluoromethyl)phenyl)hydrazono]-ethyl-4-chlorophenyl]-trifluoromethanesulfonamide] | 100% | 100% | 100% |  |  |  |
| CC(=NN(c1cccc(Cl)c1Cl)C(C)C)c1cc(Cl)ccc1NS(=O)(=O)C(F)(F)F [Compound 66] | 18% | 100% | 48% |  |  |  |
| CC(=NN(c1cccc(F)c1)C(C)C)c1cc(Cl)ccc1NS(=O)(=O)C(F)(F)F [Compound 77] | 91% | 100% | 73% |  |  |  |
| CCCN(N=C(C)c1cc(Cl)ccc1NS(=O)(=O)C(F)(F)F)c1ccc(Cl)c(Cl)c1 [Compound 97] | 52% | 100% | 73% |  |  |  |
| CCCN(N=C(C)c1cc(Cl)ccc1NS(=O)(=O)C(F)(F)F)c1cc(Cl)cc(Cl)c1 [Compound 98] | 19% | 98% | 60% |  |  |  |
| CCCN(N=C(C)c1cc(Cl)ccc1NS(=O)(=O)C(F)(F)F)c1c(Cl)cccc1Cl [Compound 103] | 56% | 100% | 40% |  |  |  |
| CCCN(N=C(C)c1cc(Cl)ccc1NS(=O)(=O)C(F)(F)F)c1ccc(F)cc1 [Compound 104] | 16% | 100% | 75% |  |  |  |
| CC(=NN(C)c1ccccc1)c1cc(Cl)ccc1N(C)S(=O)(=O)C(F)(F)F [Compound 109, N-[2-[1-(N′-methyl-N′-phenyl)hydrazono]ethyl-4-chlorophenyl]-N-methyl-trifluoromethanesulfonamide] | 73% | 100% | 8% |  |  |  |
| CCOCN(c1ccc(Cl)cc1C(C)=NN(C)c1ccccc1)S(=O)(=O)C(F)(F)F [Compound 112] | 99% | 100% | 5% |  |  |  |
| CC(=NN(C)c1ccccc1)c1ccc(C(F)(F)F)cc1NS(=O)(=O)C(F)(F)F [Compound 120, N-[2-[1-(N′-methyl-N′-phenyl)hydrazono]-ethyl-5-trifluoromethylphenyl]-trifluoromethanesulfonamide] | 28% | 83% | 58% |  |  |  |

| Compound | C. felis Mortality (%) 8 h (Ctenocephalides felis) | C. felis Mortality (%) 24 h (Ctenocephalides felis) | R. sanguineus Mortality (%) 24 h (Rhipicephalus sanguineus; data from laboratory 2) | C. felis Mortality (%) 8 h (Ctenocephalides felis; 8 h, data from laboratory 1) | C. felis Mortality (%) 24 h (Ctenocephalides felis; 24 h, data from laboratory 1) | also measured |
| --- | --- | --- | --- | --- | --- | --- |
| CC(=NN(C)C)c1ccccc1NS(=O)(=O)C(F)(F)F [Compound 124] | 59% | 94% | 88% |  |  |  |
| CCC(=NN1CCCCCC1)c1cc(Cl)ccc1NS(=O)(=O)C(F)(F)F [Compound 131] | 43% | 100% | 98% |  |  |  |
| C/C(=N\N(C)c1cnc2ccccc2n1)c1cc(Cl)ccc1NS(=O)(=O)C(F)(F)F [Compound 210] |  |  |  | 4% | 17% |  |
| CCN(N=C(C)c1cc(Cl)ccc1NS(=O)(=O)C(F)(F)F)C1CCCC1 [Compound 212] | 7% | 59% |  |  |  |  |
| CCC(=NN(CC)C1CCCC1)c1cc(Cl)ccc1NS(=O)(=O)C(F)(F)F [Compound 214] |  |  |  | 7% | 61% |  |
| CCN(N=C(C)c1cc(Cl)ccc1NS(=O)(=O)C(F)(F)F)C1CCCCC1 [Compound 216] |  |  |  | 0% | 52% |  |
| CC/C(=N\N(C)C1CCCCC1)c1cc(Cl)ccc1NS(=O)(=O)C(F)(F)F [Compound 217] |  |  |  | 3% | 48% |  |
| CCC(=NN(CC)C1CCCCC1)c1cc(Cl)ccc1NS(=O)(=O)C(F)(F)F [Compound 218] |  |  |  | 5% | 62% |  |
| CN(N=C1CCCc2cccc(NS(=O)(=O)C(F)(F)F)c21)c1ccccc1 [Compound 219, N-[8-(N′-methyl-N′-phenyl)hydrazono-5,6,7,8-tetrahydro-naphthalen-1-yl]-trifluoromethanesulfonamide] | 0% | 2% |  |  |  |  |
| C/C(=N\N(CCC#N)C(=O)C(C)C)c1cc(Cl)ccc1NS(=O)(=O)C(F)(F)F [Compound 223] | 45% | 100% | 100% |  |  |  |
| CCC(=O)N(CCC#N)/N=C(\C)c1cc(Cl)ccc1NS(=O)(=O)C(F)(F)F [Compound 225] |  |  |  | 2% | 73% |  |
| O=S(=O)(Nc1ccc(Cl)cc1C1=NN(c2ccccc2)CC1)C(F)(F)F [Compound 226] |  |  |  | 0% | 28% |  |
| O=S(=O)(Nc1ccc(Cl)cc1C1=NN(c2ccccc2F)CC1)C(F)(F)F [Compound 228] |  |  |  | 14% | 59% |  |
| O=S(=O)(Nc1ccc(Cl)cc1C1=NN(c2ccccc2)CC1)C(F)(F)F [Compound 229, N-[4-Chloro-2-(1-phenyl-4,5-dihydro-1H-pyrazol-3-yl)-phenyl]-trifluoromethanesulfonamide] |  |  |  |  |  | C. felis Mortality (%) 8 h (Ctenocephalides felis; 8 h): 18%; C. felis Mortality (%) 24 h (Ctenocephalides felis; 24 h): 37% |
| O=S(=O)(Nc1ccc(Cl)cc1-c1ccn(-c2ccccc2)n1)C(F)(F)F [Compound 230, N-[4-Chloro-2-[1-phenyl-1H-pyrazol-3-yl]-phenyl]-trifluoromethanesulfonamide] |  |  |  |  |  | C. felis Mortality (%) 8 h (Ctenocephalides felis; 8 h): 10%; C. felis Mortality (%) 24 h (Ctenocephalides felis; 24 h): 43% |
| O=S(=O)(Nc1ccc(Cl)cc1C1=NN(c2cccc(Cl)c2)CC1)C(F)(F)F [Compound 231] |  |  |  | 12% | 42% |  |
| O=S(=O)(Nc1ccc(Cl)cc1C1=NN(c2cccc(F)c2)CC1)C(F)(F)F [Compound 232] |  |  |  | 7% | 27% |  |
| O=S(=O)(Nc1ccc(Cl)cc1C1=NN(c2ccc(F)cc2)CC1)C(F)(F)F [Compound 233] |  |  |  | 9% | 28% |  |
| O=S(=O)(Nc1ccc(Cl)cc1C1=NN(c2ccc(Cl)cc2)CC1)C(F)(F)F [Compound 234] |  |  |  | 14% | 41% |  |
